Measured values from patent US7259004B1, “Endophytic streptomycetes from higher plants with biological activity” (Montana State University, priority 2002, dated 2007).

Columns and labels:
[1] = test system: Enterococcus faecalis ATCC 51299; experiment: disk diffusion assay; format: cell-based; settings: 10 micrograms per disk; ciprofloxacin 5, vancomycin 30 micrograms per disk; 35° C.
[2] = test system: Staphylococcus aureus ATCC 29213; experiment: disk diffusion assay; format: cell-based; settings: 10 micrograms per disk; ciprofloxacin 5, vancomycin 30 micrograms per disk; 35° C.
[3] = test system: Acinetobacter sp. ATCC 49137; experiment: disk diffusion assay; format: cell-based; settings: 10 micrograms per disk; ciprofloxacin 5, vancomycin 30 micrograms per disk; grown at 30° C.
[4] = test system: Escherichia coli ATCC 25922; experiment: disk diffusion assay; format: cell-based; settings: 10 micrograms per disk; penicillin G 10 units per disk; 35° C. Also: key: R = resistant.
[5] = test system: Candida albicans ATCC 90028; experiment: disk diffusion assay; format: cell-based; settings: 10 micrograms per disk; 35° C. Also: key: R = resistant.
[6] = test system: Candida parasdosis ATCC 90018; experiment: disk diffusion assay; format: cell-based, Candida parapsilosis; settings: 10 micrograms per disk; 35° C. Also: key: R = resistant.
E. faecalis 29212 = experiment: microbroth dilution MIC; format: cell-based, Enterococcus faecalis
Bacillus cereus 4342 = experiment: microbroth dilution MIC; format: cell-based
[7] = test system: Listeria monocytogenes 19115; experiment: microbroth dilution MIC; format: cell-based
[8] = test system: Staphylococccus simulans 11631; experiment: microbroth dilution MIC; format: cell-based, Staphylococcus simulans
[9] = test system: Staphylococccus aureus 27734; experiment: microbroth dilution MIC; format: cell-based, Staphylococcus aureus
[10] = test system: Human Breast Cancer Epithelial BT-20; experiment: CellTiter 96 Aqueous Non-Radioactive Cell Proliferation Assay; format: cell-based; settings: 96-144 hours; Table 7
[11] = test system: Human Cervical Cancer Epithelial ME180; experiment: as above; format: cell-based; settings: 48 hours; Table 7
Outline: (§1)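 Cells rested 5 h at 37° C after seeding, then treated in triplicate with two-fold serial dilutions of compound. A-549 and ME-180 were exposed for 48 h. After 1–4 h MTS reagent at 37° C, OD490 was read and corrected by subtracting medium-only blanks.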

[12] = test system: Human Lung Cancer Epithelial A549; experiment: as above; format: cell-based; settings: 48 hours; Table 7
Outline: as §1

[13] = test system: Human Primary Mammary Epithelial HMEC; experiment: as above; format: cell-based; settings: 48 hours; Table 7
[14] = test system: DNA synthesis in Bacillus subtilis; experiment: macromolecular synthesis whole cell assay, [3H]thymidine incorporation; format: cell-based; settings: for % [3H]thymidine (DNA synthesis) incorporation of that of the untreated culture: 1×MIC
[15] = test system: RNA synthesis in Bacillus subtilis; experiment: macromolecular synthesis whole cell assay, [3H]uridine incorporation; format: cell-based; settings: for % [3H]uridine (RNA synthesis) incorporation of that of the untreated culture: 1×MIC
[16] = test system: Protein synthesis in Bacillus subtilis; experiment: macromolecular synthesis whole cell assay, [3H]amino acid mixture incorporation; format: cell-based; settings: for % [3H]amino acid mixture (Protein synthesis) incorporation of that of the untreated culture: 1×MIC
[17] = test system: Cell wall synthesis in Bacillus subtilis; experiment: macromolecular synthesis whole cell assay, [3H]N-acetyl glucosamine incorporation; format: cell-based; settings: for % [3H]N-acetyl glucosamine (Cell wall synthesis) incorporation of that of the untreated culture: 1×MIC
brine shrimp = brine shrimp assays; settings: preliminary assays
Cryptococcus neoformans = experiment: microbroth dilution MIC
[18] = test system: Streptococcus pneumoniae 700674; experiment: microbroth dilution MIC
Candida albicans = experiment: microbroth dilution MIC
[19] = test system: Staphyloccus aureus MH II Eli Lilly Co.; experiment: microbroth dilution MIC; settings: drug sensitive strain

Row | Substance | diameter of the zone of inhibition, Enterococcus faecalis ATCC 51299 [1] | diameter of the zone of inhibition, Staphylococcus aureus ATCC 29213 [2] | diameter of the zone of inhibition, Acinetobacter sp. ATCC 49137 [3] | diameter of the zone of inhibition, Escherichia coli ATCC 25922 [4] | diameter of the zone of inhibition, Candida albicans ATCC 90028 [5] | diameter of the zone of inhibition, Candida parasdosis ATCC 90018 [6] | MIC E. faecalis 29212 (E. faecalis 29212) | MIC Bacillus cereus 4342 (Bacillus cereus 4342) | MIC Listeria monocytogenes 19115 [7] | MIC Staphylococccus simulans 11631 [8] | MIC Staphylococccus aureus 27734 [9] | IC50 Human Breast Cancer Epithelial BT-20 [10] | IC50 Human Cervical Cancer Epithelial ME180 [11] | IC50 Human Lung Cancer Epithelial A549 [12] | IC50 Human Primary Mammary Epithelial HMEC [13] | LC50 brine shrimp (brine shrimp) | MIC Cryptococcus neoformans (Cryptococcus neoformans) | MIC Streptococcus pneumoniae 700674 [18] | other results
1 | munumbicin B | 23 mm | 15 mm | R | R | R | R | 0.25 micrograms/ml | 0.5 micrograms/ml | 4 micrograms/ml | 1 micrograms/ml | 0.5 micrograms/ml | 0.019 micrograms/ml | 0.140 micrograms/ml | 0.019 micrograms/ml | 0.011 micrograms/ml | 8.2 micrograms/ml | 10 micrograms/ml | 0.5 micrograms/ml | effect on DNA synthesis (in words) [14]: no effect; % [3H]thymidine (DNA synthesis) incorporation of that of the untreated culture ([14]; 5 min): 93%; % [3H]thymidine (DNA synthesis) incorporation of that of the untreated culture ([14]; 10 min): 102%; effect on RNA synthesis (in words) [15]: some inhibitory effect; % [3H]uridine (RNA synthesis) incorporation of that of the untreated culture ([15]; 5 min): 64%; % [3H]uridine (RNA synthesis) incorporation of that of the untreated culture ([15]; 10 min): 59%; effect on protein synthesis (in words) [16]: milder inhibitory effect; % [3H]amino acid mixture (Protein synthesis) incorporation of that of the untreated culture ([16]; 5 min): 85%; % [3H]amino acid mixture (Protein synthesis) incorporation of that of the untreated culture ([16]; 10 min): 74%; effect on cell wall synthesis (in words) [17]: some inhibitory effect; % [3H]N-acetyl glucosamine (Cell wall synthesis) incorporation of that of the untreated culture ([17]; 5 min): 81%; % [3H]N-acetyl glucosamine (Cell wall synthesis) incorporation of that of the untreated culture ([17]; 10 min): 59%
2 | munumbicin C | 22 mm | R | R | R | R | R | 0.5 micrograms/ml | 0.25 micrograms/ml | 2 micrograms/ml | 1 micrograms/ml | 0.5 micrograms/ml | 0.013 micrograms/ml | 0.1 micrograms/ml | 0.3 micrograms/ml | 0.0023 micrograms/ml | 2.0 micrograms/ml | 10 micrograms/ml | 0.125 micrograms/ml | concentration causing detectable lysis of human red blood cells (human red blood cells): > 80 micrograms/ml; MIC Candida albicans (Candida albicans): >10 micrograms/ml; MIC Staphyloccus aureus MH II Eli Lilly Co. [19]: 0.4 micrograms/ml
